Among the test systems are M14 melanoma; UO-31 renal; HS 578T breast; MDA-MB-435; UACC-257 melanoma; T-47D breast; SNB-19 CNS; DU-145 prostate; MOLT-4 leukemia; RPMI-8226 leukemia.
Common to all, as to test: growth of human tumour cells (NCI), 48 h

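How tested: cells in 96-well plates exposed to compound for 48 hours at five concentrations. At the GI50, growth is halved. Definition used: TGI = concentration required for complete inhibition of growth.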

The values below come from PubChem BioAssay (NCI).

As for `OCCCCC#Cc1ccccc1C#Cc1ccccc1F`, the GI50 in the assay on M14 melanoma was 14.6 µM; in the assay with UO-31 renal it was 20.7 µM; with HS 578T breast it was 27.5 µM; in the assay on MDA-MB-435, 18.9 µM; in the assay with UACC-257 melanoma, 18.9 µM; in the assay on T-47D breast, 16.1 µM. In addition, the GI50 in the assay on SNB-19 CNS is 17.5 µM; in the assay with DU-145 prostate, 35.7 µM; in the assay on MOLT-4 leukemia, 21.2 µM; with RPMI-8226 leukemia, 30.7 µM. For the same compound, the TGI in the assay on M14 melanoma was 29.6 µM; in the assay with UO-31 renal it was 46.5 µM; with HS 578T breast it was 71.9 µM; with MDA-MB-435 it was 37.2 µM; in the assay with UACC-257 melanoma it was 39.2 µM; in the assay with T-47D breast, 42.6 µM. Further, the TGI was 36.8 µM with SNB-19 CNS, greater than 100 µM with DU-145 prostate, 49.8 µM in the assay on MOLT-4 leukemia and 70 µM in the assay on RPMI-8226 leukemia.

As for `ON(CCc1ccncc1)Cc1ccccc1`, the TGI in the assay with M14 melanoma, with UO-31 renal, with HS 578T breast, in the assay with MDA-MB-435, in the assay with T-47D breast and with SNB-19 CNS was greater than 100 µM each time. Also, the TGI with DU-145 prostate, in the assay on MOLT-4 leukemia and in the assay on RPMI-8226 leukemia was greater than 100 µM each time.

With `COc1ccc(C2=CC(c3cc(OC)c(OC)c(OC)c3)NC(=O)N2)cc1OC` (stereo unspecified), the GI50 was 3.59 µM in the assay on M14 melanoma; 2.54 µM in the assay on UO-31 renal; 3.1 µM with MDA-MB-435; 10.8 µM with UACC-257 melanoma; 2.63 µM in the assay on T-47D breast; 4.73 µM with SNB-19 CNS. For the same compound, the GI50 in the assay with DU-145 prostate was 1.9 µM; in the assay with MOLT-4 leukemia, 2.41 µM; in the assay on RPMI-8226 leukemia it was 3.03 µM. Moreover, the TGI was found to be 11.5 µM with M14 melanoma; 12.8 µM with UO-31 renal; 16.9 µM in the assay with MDA-MB-435; 23.2 µM in the assay on UACC-257 melanoma; 28.9 µM in the assay with T-47D breast; 17 µM in the assay with SNB-19 CNS. For the same compound, the figures for the TGI in the assay on DU-145 prostate, in the assay on MOLT-4 leukemia and in the assay on RPMI-8226 leukemia were 4.45 µM, 12.5 µM and 19.3 µM, respectively.

Turning to `C[N+](C)([O-])CCCNc1c2ccccc2nc2cccc([N+](=O)[O-])c12`, the TGI in the assay with M14 melanoma turned out to be 0.772 µM; in the assay on UO-31 renal it was 4.34 µM; in the assay on HS 578T breast, 7.63 µM; with MDA-MB-435 it was 0.647 µM; in the assay with UACC-257 melanoma, 2.25 µM; in the assay with T-47D breast, 3.62 µM. Further, the results for the TGI in the assay with SNB-19 CNS and with DU-145 prostate were 3.2 µM and 1.49 µM, respectively.

As for `NC1C2C(CC(=O)O)OCC=C3CN4CCC1(C(=O)C(=O)O)C4CC32` (stereo unspecified), the TGI in the assay with M14 melanoma, in the assay on UO-31 renal, in the assay on HS 578T breast, in the assay with MDA-MB-435, with UACC-257 melanoma and in the assay with T-47D breast was greater than 100 µM in each case. Further, the TGI in the assay with SNB-19 CNS, with DU-145 prostate and in the assay with MOLT-4 leukemia was greater than 100 µM throughout.

Turning to `CCON=C1C(C)(C)C(C)(C)C(C)(C)C1(C)C`, the TGI in the assay with M14 melanoma, in the assay on HS 578T breast, with MDA-MB-435, in the assay with UACC-257 melanoma, with T-47D breast and in the assay with SNB-19 CNS was greater than 100 µM each time. In addition, the TGI in the assay with DU-145 prostate, in the assay on MOLT-4 leukemia and with RPMI-8226 leukemia was greater than 100 µM in each case.

`CCCCCCCCCCCCCCCC(=O)OCC1OC(n2cnc3c(=S)nc(N)[nH]c32)C(OC(=O)CCCCCCCCCCCCCCC)C1OC(=O)CCCCCCCCCCCCCCC` (stereo unspecified): the GI50 is 1.5 µM with M14 melanoma; 9.49 µM in the assay on UO-31 renal; 13 µM in the assay on HS 578T breast; 3.68 µM with MDA-MB-435; greater than 50 µM in the assay on UACC-257 melanoma; 2 µM with T-47D breast. Moreover, the GI50 was greater than 50 µM in the assay on SNB-19 CNS, 1.98 µM with DU-145 prostate and 2.95 µM with MOLT-4 leukemia. Also, the TGI in the assay on M14 melanoma is greater than 17.9 µM; in the assay with UO-31 renal, greater than 50 µM; in the assay on HS 578T breast, greater than 50 µM; in the assay with MDA-MB-435 it was greater than 50 µM; in the assay with UACC-257 melanoma, greater than 50 µM; in the assay on T-47D breast, greater than 50 µM. Besides, the TGI in the assay on SNB-19 CNS, with DU-145 prostate and with MOLT-4 leukemia was greater than 50 µM each time.

As for `c1cc(C2CCCCC2)ccc1OCCCCCCN1CCNCC1`, the GI50 with M14 melanoma is 1.98 µM; in the assay on UO-31 renal it was 1.62 µM; in the assay with HS 578T breast, 1.96 µM; with MDA-MB-435 it was 1.64 µM; in the assay on UACC-257 melanoma it was 1.89 µM; in the assay on T-47D breast it was 2.14 µM. Moreover, the GI50 with DU-145 prostate was 1.88 µM. The TGI with M14 melanoma is 4.33 µM; in the assay on UO-31 renal, 3.38 µM; in the assay with HS 578T breast, 4.48 µM; in the assay with MDA-MB-435, 3.12 µM; in the assay with UACC-257 melanoma it was 3.68 µM; in the assay on T-47D breast, 4.79 µM. For the same compound, in the assay with DU-145 prostate, the TGI was found to be 3.42 µM.

For the compound `CC/C=C\C/C=C\C[C@H](O)C/C=C1/C(=O)C=C[C@H]1C/C=C\CCC(=O)OC`, the GI50 was 6.11 µM with M14 melanoma; 7.58 µM in the assay with UO-31 renal; 7.66 µM in the assay with HS 578T breast; 2.35 µM in the assay on MDA-MB-435; 2.93 µM with T-47D breast; 7.76 µM with SNB-19 CNS. Besides, the GI50 in the assay with DU-145 prostate was 4.95 µM; in the assay with MOLT-4 leukemia, 2.93 µM; in the assay with RPMI-8226 leukemia, 1.59 µM. Besides, the TGI with M14 melanoma, in the assay on UO-31 renal, in the assay with HS 578T breast, in the assay with MDA-MB-435, with T-47D breast and in the assay with SNB-19 CNS was greater than 8.25 µM each time. Also, the figures for the TGI with DU-145 prostate, in the assay on MOLT-4 leukemia and in the assay with RPMI-8226 leukemia were greater than 8.25 µM, greater than 8.25 µM and 5.01 µM, respectively.

On to `Cc1ccc2c[c]1[Hg][CH2]COS2(=O)=O`, for which the GI50 is 17.4 µM in the assay with M14 melanoma; 17.3 µM in the assay with UO-31 renal; 23.7 µM in the assay with HS 578T breast; 24.7 µM in the assay on MDA-MB-435; 16.4 µM in the assay with UACC-257 melanoma; 15 µM in the assay with T-47D breast. Also, the GI50 in the assay with SNB-19 CNS is greater than 100 µM; in the assay with DU-145 prostate, 18.8 µM; in the assay with MOLT-4 leukemia, 18.1 µM. The TGI stood at 31.2 µM in the assay on M14 melanoma; 31 µM in the assay on UO-31 renal; 58.1 µM in the assay with HS 578T breast; 39.4 µM with MDA-MB-435; 29.9 µM with UACC-257 melanoma; 29.7 µM with T-47D breast. Also, the results for the TGI with SNB-19 CNS, in the assay on DU-145 prostate and in the assay on MOLT-4 leukemia were greater than 100 µM, 32.8 µM and 34.1 µM, respectively.
